One series in a line: in vitro. The following applies: human, hela cells, % viability.
By viability is commonly meant a read-out of living cells in per cent, often relative to untreated cells. With `CC1CC(C)CN(C(=O)c2cc(S(=O)(=O)N3CCOCC3)ccc2Cl)C1` (centres unmarked) [CBK305000], the viability at 28.5 h, 10 µM turned out to be 87%. In the case of `Cc1nc(N2CCOCC2)[nH]c(=O)c1CCC(=O)Nc1ccccc1F` [CBK305003], the viability at 28.5 h, 10 µM was determined as 97.7%. In the case of `O=C(c1cc(S(=O)(=O)NCc2ccco2)c(Cl)cc1Cl)N1CCC1` [CBK305004], the viability at 28.5 h, 10 µM worked out at 98%.

Take `CCC1CCC2(CC1)NC(=O)N(Cc1nc(-c3cccs3)no1)C2=O` (centres unmarked) [CBK305005]: the viability at 28.5 h, 10 µM was 92.6%. `CCn1cc(C(=O)N2CCc3sccc3C2)c(=O)c2ccc(C)nc21` [CBK305006]: the viability at 28.5 h, 10 µM worked out at 94.3%. For `CC1CCc2c(sc3ncnc(NC4CCN(CC(N)=O)CC4)c23)C1` (centres unmarked) [CBK305008], the viability at 28.5 h, 10 µM was 91.7%. For `CSc1ncccc1C(=O)NCc1ccc(NC(C)=O)cc1` [CBK305009], the viability at 28.5 h, 10 µM was determined as 97%. On to `CC(=O)Nc1ccc(CNC(=O)c2ccoc2C)cc1` [CBK305010], for which the viability at 28.5 h, 10 µM amounted to 114%. Still for that read-out and setting: the figure for `Cc1ccc(Cc2cnc(NC(=O)C3CCCO3)s2)cc1Cl` (centres unmarked) [CBK305013] is 96%. `O=C(CSc1nnc(C2CC2)o1)Nc1ccc(CN2CCOCC2)cc1` [CBK305015]: the viability at 28.5 h, 10 µM was 86%.

Take `Cc1csc(NC(=O)c2cccc(S(=O)(=O)NCC3CCCO3)c2)n1` (centres unmarked) [CBK305017]: the viability at 28.5 h, 10 µM came to 96.7%. Still for that read-out and setting: the result for `CCCn1c(SC(C)C(=O)N2CCOCC2)nc2ccc(Br)cc2c1=O` (centres unmarked) [CBK305020] reads 92.2%.

For `CCNC(=O)C(C)NC(=O)c1cnn(-c2ccc(Br)cc2)c1C` (centres unmarked) [CBK305021], the viability at 28.5 h, 10 µM stood at 79.3%.

As for `CCc1ccc(C(=O)C(C)OC(=O)c2nc3nc(C)cc(C)n3n2)cc1` (centres unmarked) [CBK305023], the viability at 28.5 h, 10 µM came to 87.7%. Take `Cc1nc(C)c(CCC(=O)Nc2cccc(F)c2)c(=O)[nH]1` [CBK305026]: the viability at 28.5 h, 10 µM stood at 90.3%. On to `O=C(NCc1cccnc1)c1csc2c1CCCC2` [CBK305029], for which the viability at 28.5 h, 10 µM came out at 86.4%. Same read-out and setting: the result for `CCCc1cc(O)nc(SC(C)C(=O)N2CCOCC2)n1` (centres unmarked) [CBK305030] reads 86%; that for `CCC(C)NC(=O)CN1CCN(Cn2nnc3ccccc3c2=O)CC1` (centres unmarked) [CBK305032], 100%. On to `COCCNC(=O)c1cc(-c2ccc(C)cc2)nc2c1cnn2C(C)C` [CBK305033], for which the viability at 28.5 h, 10 µM is 93.8%. As for `C#CCNC(=O)N1CCC(c2c[nH]c3ccccc23)CC1` [CBK305034], the viability at 28.5 h, 10 µM turned out to be 87.4%. Regarding `CCCCN(CC)S(=O)(=O)c1ccc(-n2ncc(Cl)c(Cl)c2=O)cc1` [CBK305036], the viability at 28.5 h, 10 µM came out at 6.38%.

With `Cc1cccc(C(=O)N2CCN(Cc3cc(=O)n4ccsc4n3)CC2)c1` [CBK305037], the viability at 28.5 h, 10 µM amounted to 91%. Same read-out and setting: the result for `CCC1CCCCN1S(=O)(=O)c1ccc(-n2ncc(Cl)c(Cl)c2=O)cc1` (centres unmarked) [CBK305038] reads 13.9%; that for `Cn1cnnc1CNC(=O)N1CCN(Cc2cccs2)CC1` [CBK305045], 86.3%; that for `CNS(=O)(=O)c1cc(C(=O)NC2CCCc3ccccc32)n(C)c1` (centres unmarked) [CBK305048], 103%. On to `CCCCN(C)C(=O)Cn1nc(C)c2ccccc2c1=O` [CBK305050], for which the viability at 28.5 h, 10 µM came to 81.4%. For the compound `COCCNC(=O)c1cc(-c2ccc(C)s2)nc2c1cnn2C(C)C` [CBK305051], the viability at 28.5 h, 10 µM was determined as 105%. For `COCCNC(=O)c1cc(-c2cc(C)oc2C)nc2c1cnn2C(C)C` [CBK305052], the viability at 28.5 h, 10 µM was 101%. Turning to `Cn1ncc2c(=O)n(Cc3noc(-c4ccco4)n3)cnc21` [CBK305053], the viability at 28.5 h, 10 µM is 97.1%. With `CC(=O)Nc1cccc(-n2cnnc2SCC2CCCCC2)c1` [CBK305054], the viability at 28.5 h, 10 µM is 96.2%.

On to `Cc1ccc(C(=O)N2CCN(Cc3cc(=O)n4ccsc4n3)CC2)cc1` [CBK305057], for which the viability at 28.5 h, 10 µM amounted to 107%.

For the compound `CCNc1nnc(SCCC(=O)N2CCN(c3ccc(F)cc3)CC2)s1` [CBK305058], the viability at 28.5 h, 10 µM was found to be 100%. For the compound `CCCn1cc(NC(=O)NC(CC)(CO)c2ccccc2)ccc1=O` (centres unmarked) [CBK305060], the viability at 28.5 h, 10 µM was determined as 104%. `Cn1cc(CNC(=O)Nc2cccc(CN3CCCCC3=O)c2)cn1` [CBK305062]: the viability at 28.5 h, 10 µM came out at 91.4%. On the same count and under the same terms, the figure for `Cc1cc(NC(=O)N2CCN(CCNC(=O)C3CCCC3)CC2)no1` [CBK305064] is 100%; for `Cn1cc(Nc2nc(-c3ccc(CCNS(C)(=O)=O)cc3)cs2)cn1` [CBK305065] it is 109%. For `Cc1nn(-c2ccccc2)c(Cl)c1CN1C(=O)NC2(CCCC2)C1=O` [CBK305070], the viability at 28.5 h, 10 µM came to 91.9%.

Regarding `Cc1ccc(C)c(NC(=O)Cc2nc(CN3CCNC(=O)C3)cs2)c1` [CBK305071], the viability at 28.5 h, 10 µM came to 96.4%. The same measure, in the same setting: the figure for `Cc1ccccc1Nc1nc(N)nc(CN2CCCC(C(F)(F)F)C2)n1` (centres unmarked) [CBK305073] is 105%; for `Cc1nc(COc2ccc(F)cc2)sc1C(=O)O` [CBK305074] it is 98%; for `CCOc1ccc2c(c1)CN(CCCc1nc(C)no1)CC2` [CBK305076] it is 99.2%. As to `COc1ccc(OCc2ncc(C(C)(C)C)o2)c(C(C)=O)c1` [CBK305079], the viability at 28.5 h, 10 µM came out at 115%. Turning to `Cc1nc(C)n(CC2CCCN(Cc3ccc(C#N)cc3)C2)n1` (centres unmarked) [CBK305082], the viability at 28.5 h, 10 µM amounted to 83.1%. Take `Cc1nc(C)n(CC2CCCN(Cc3ccccc3C#N)C2)n1` (centres unmarked) [CBK305085]: the viability at 28.5 h, 10 µM stood at 98.4%.

With `Cc1cc(CN2CCC(N(C)Cc3nnc(C)n3C)C2)no1` (centres unmarked) [CBK305088], the viability at 28.5 h, 10 µM came to 96.6%.

`Cc1csc(CNCc2c(C(C)C)nn(C)c2N(C)C)n1` [CBK305089]: the viability at 28.5 h, 10 µM worked out at 83.7%. `CCc1nc(CN2CCOC(c3ccc(F)cc3)C2)cs1` (centres unmarked) [CBK305090]: the viability at 28.5 h, 10 µM came to 89.7%. In the case of `Cc1ccc(OCC(=O)N2CCCCC2c2nccs2)cc1` (centres unmarked) [CBK305091], the viability at 28.5 h, 10 µM amounted to 88.7%. On to `CN(Cc1cnn(C)c1)C(=O)C1CCCN1Cc1ccccn1` (centres unmarked) [CBK305092], for which the viability at 28.5 h, 10 µM was 96%. Regarding `CC(Cn1cccn1)NCC(=O)N(C)C1(C#N)CCCCC1` (centres unmarked) [CBK305096], the viability at 28.5 h, 10 µM stood at 91.5%.

As for `Cc1cnn(C2CN(CC(=O)N3CCc4sccc4C3)C2)c1` [CBK305097], the viability at 28.5 h, 10 µM was found to be 86.8%. As to `COCCN1CCCC(NC(C)c2ccc(OC)c(F)c2)C1` (centres unmarked) [CBK305099], the viability at 28.5 h, 10 µM was 80.9%. Regarding `CS(=O)(=O)NC1CCN(C2CCc3c(F)cc(F)cc32)C1` (centres unmarked) [CBK305101], the viability at 28.5 h, 10 µM came to 90.1%. As for `CCC(C)CS(=O)(=O)c1nc(C)c(C)n1CC1CCCO1` (centres unmarked) [CBK305107], the viability at 28.5 h, 10 µM came to 114%. Still for that read-out and setting: the result for `CCN1CCOC(CNCc2ccc(OCC(N)=O)cc2)C1` (centres unmarked) [CBK305108] reads 96.8%.

Regarding `CCOC(=O)c1cnn(C2CCCN(Cc3ccsc3)C2)c1` (centres unmarked) [CBK305112], the viability at 28.5 h, 10 µM came to 94.9%.

In the case of `CCOC(=O)c1cnn(C2CCCN(Cc3cnnn3C)C2)c1` (centres unmarked) [CBK305122], the viability at 28.5 h, 10 µM stood at 98.5%. As for `CCc1onc(C)c1C(=O)NCC1CCCCN1CC(C)C` (centres unmarked) [CBK305124], the viability at 28.5 h, 10 µM stood at 106%. On the same count and under the same terms, the result for `CCOC(=O)c1cnn(C2CCCN(Cc3cc[nH]n3)C2)c1` (centres unmarked) [CBK305125] reads 87.4%; that for `CC(=O)Nc1cccc(CN(C)C(CCO)c2ccccc2)c1` (centres unmarked) [CBK305127], 95.8%; that for `CC(C)(C)OC(=O)N1CCCC(NCc2ccccn2)CC1` (centres unmarked) [CBK305128], 106%.

On to `CC(C)C(CNCc1ccc(F)c(Cl)c1)c1ccnn1C` (centres unmarked) [CBK305130], for which the viability at 28.5 h, 10 µM was determined as 82.9%. Turning to `CCC(NC1CCc2nc(COC)nn2C1)c1ccccc1O` (centres unmarked) [CBK305132], the viability at 28.5 h, 10 µM stood at 92.1%. Same read-out and setting: the result for `COc1cc(OC)cc(C(=O)N(CCC#N)Cc2ccco2)c1` [CBK305133] reads 96.3%; that for `CCN(CC)C(=O)NC(C)c1cccc(S(=O)(=O)NC)c1` (centres unmarked) [CBK305134], 94.4%; that for `CC(=O)Nc1cccc(CN2CCCC2CC(O)c2ccccc2)c1` (centres unmarked) [CBK305136], 104%. The same measure, in the same setting: the result for `Cc1nc(S(=O)(=O)CCn2cccn2)n(C2CCCC2)c1C` [CBK305138] reads 89%. For the compound `Cc1cc(NC(=O)CN2CCCC2CC(O)c2ccccc2)no1` (centres unmarked) [CBK305139], the viability at 28.5 h, 10 µM turned out to be 88.8%. Take `O=C(c1cccc2ncccc12)N1CCN(CC2CCOC2)CC1` (centres unmarked) [CBK305140]: the viability at 28.5 h, 10 µM is 94.3%. On the same count and under the same terms, the result for `Cc1nc(S(=O)(=O)CCn2cccn2)n(CC2CCCO2)c1C` (centres unmarked) [CBK305141] reads 96.6%; that for `CCn1ncc2c1CCCC2NC1CCN(c2ccccc2)C1=O` (centres unmarked) [CBK305144], 93.6%; that for `O=C(NCCCN1CCCCC1)C1CC(=O)N(Cc2ccco2)C1` (centres unmarked) [CBK305145], 93.1%. The same measure, in the same setting: the result for `COc1ccc(C(=O)N(C)Cc2cnn(C)c2)cc1Br` [CBK305149] reads 84.8%.

Consider `O=C(NCCN1CCCCC1)C1CC(=O)N(Cc2ccccc2)C1` (centres unmarked) [CBK305150], for which the viability at 28.5 h, 10 µM was 96.5%. `CC1CN(CCNCc2cn(C)nc2-c2cccnc2)CC(C)O1` (centres unmarked) [CBK305151]: the viability at 28.5 h, 10 µM was found to be 110%. As for `Cc1cc(C)nc(CCNCc2c(C(C)C)nn(C)c2N(C)C)n1` [CBK305159], the viability at 28.5 h, 10 µM came out at 112%.

Regarding `Cc1nc(CN2CCCC(NCc3ccc4ccccc4c3)C2)no1` (centres unmarked) [CBK305160], the viability at 28.5 h, 10 µM worked out at 96.5%. The same measure, in the same setting: the result for `Cc1c(C(=O)N(C)CC(C)C)nnn1-c1ccc2ncccc2c1` [CBK305161] reads 102%; that for `CC(=O)Nc1cccc(CN2CCCC2CN2CCCC2CO)c1` (centres unmarked) [CBK305163], 98.9%; that for `Cc1cccc(CN2CCC(N(C)Cc3nnc(C4CC4)n3C)C2)c1` (centres unmarked) [CBK305165], 88.5%.

On to `Cc1cccn2cc(CCNC(=O)CN3Cc4ccccc4C3)nc12` [CBK305166], for which the viability at 28.5 h, 10 µM stood at 101%. On the same count and under the same terms, the figure for `OC(COCc1ccco1)CN1CCc2sccc2C1C1CC1` (centres unmarked) [CBK305167] is 119%.

Still in this series, the particulars now being: human, hela cells, % viability, bulk resorufin, single well.
In the case of `COCCn1cc(C(=O)N2CCN(C)CC2C)c2ccccc21` (centres unmarked) [CBK305123], the viability at 28.5 h, 10 µM amounted to 102%.

These data come from paper PMC12040169 (PLOS Biology, 2025).
